In BindingDB's records for doi:10.1016/s0167-0115(98)00050-0 (Uppsala University, 1998):

Key:
[1] = target: Pancreatic polypeptide receptor 1 (Sus scrofa, UniProt O97505)
[2] = target: Neuropeptide Y receptor type 4 (Rattus norvegicus, UniProt Q63447)
[3] = target: Neuropeptide Y receptor type 4 (Homo sapiens, UniProt P50391)
Sequence of Neuropeptide Y receptor type 4 (Homo sapiens, UniProt P50391) (P50391 whole entry C240R): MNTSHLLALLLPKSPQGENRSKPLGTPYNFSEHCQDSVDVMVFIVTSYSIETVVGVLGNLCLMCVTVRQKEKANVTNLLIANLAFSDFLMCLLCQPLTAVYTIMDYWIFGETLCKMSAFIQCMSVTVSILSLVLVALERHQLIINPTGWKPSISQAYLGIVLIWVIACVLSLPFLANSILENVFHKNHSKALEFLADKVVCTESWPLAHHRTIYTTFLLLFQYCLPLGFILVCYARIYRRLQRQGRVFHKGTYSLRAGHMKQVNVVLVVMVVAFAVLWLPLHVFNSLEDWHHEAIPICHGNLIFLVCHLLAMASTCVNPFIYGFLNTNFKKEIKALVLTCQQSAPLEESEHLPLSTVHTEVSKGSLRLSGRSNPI

Sequence of Pancreatic polypeptide receptor 1 (O97505 whole entry): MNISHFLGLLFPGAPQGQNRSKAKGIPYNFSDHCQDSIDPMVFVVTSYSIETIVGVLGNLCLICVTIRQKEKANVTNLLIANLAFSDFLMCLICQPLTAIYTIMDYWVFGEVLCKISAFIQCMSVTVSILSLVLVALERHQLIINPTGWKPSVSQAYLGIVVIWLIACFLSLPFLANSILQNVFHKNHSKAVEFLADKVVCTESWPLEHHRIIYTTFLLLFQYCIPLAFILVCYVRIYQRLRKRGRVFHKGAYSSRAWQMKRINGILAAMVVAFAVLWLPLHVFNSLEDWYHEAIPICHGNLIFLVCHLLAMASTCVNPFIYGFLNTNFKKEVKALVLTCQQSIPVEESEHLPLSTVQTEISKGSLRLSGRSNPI
Sequence of Neuropeptide Y receptor type 4 (Rattus norvegicus, UniProt Q63447) (Q63447 whole entry): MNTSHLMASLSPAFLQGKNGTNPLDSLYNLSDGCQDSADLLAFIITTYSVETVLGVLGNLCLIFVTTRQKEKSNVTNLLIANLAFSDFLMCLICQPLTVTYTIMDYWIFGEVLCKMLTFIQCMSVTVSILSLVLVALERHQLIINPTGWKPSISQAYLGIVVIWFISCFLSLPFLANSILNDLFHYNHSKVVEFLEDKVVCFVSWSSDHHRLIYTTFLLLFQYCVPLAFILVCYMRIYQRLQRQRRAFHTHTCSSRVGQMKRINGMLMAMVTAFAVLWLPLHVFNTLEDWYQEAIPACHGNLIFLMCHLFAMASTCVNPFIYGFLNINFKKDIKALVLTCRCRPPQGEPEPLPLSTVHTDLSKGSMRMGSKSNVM

Ki [1] [nM]	Ki [2] [nM]	Ki [3] [nM]	Compound
0.044	0.0027	0.071	CC[C@H](C)[C@H](NC(=O)[C@H](Cc1ccc(O)cc1)NC(=O)[C@H](CCCNC(=N)N)NC(=O)[C@H](CCCNC(=N)N)NC(=O)[C@H](CC(C)C)NC(=O)[C@H](CCC(N)=O)NC(=O)[C@@H](NC(=O)[C@H](CCC(=O)O)NC(=O)[C@H](Cc1ccc(O)cc1)NC(=O)[C@H](CCC(N)=O)NC(=O)[C@H](C)NC(=O)[C@H](CCCNC(=N)N)NC(=O)[C@H](CCC(N)=O)NC(=O)[C@H](CCC(=O)O)NC(=O)[C@H](Cc1c[nH]cn1)NC(=O)[C@@H](NC(=O)[C@H](C)NC(=O)[C@H](Cc1ccc(O)cc1)NC(=O)[C@H](CC(=O)O)NC(=O)CNC(=O)[C@@H]1CCCN1C(=O)[C@H](Cc1ccc(O)cc1)NC(=O)[C@H](CCSC)NC(=O)[C@@H]1CCCN1C(=O)[C@H](CCC(=O)O)NC(=O)[C@H](CC(C)C)NC(=O)[C@@H]1CCCN1C(=O)[C@H](C)N)[C@@H](C)O)[C@@H](C)O)C(=O)N[C@@H](CC(N)=O)C(=O)N[C@H](C(=O)N[C@@H](CC(C)C)C(=O)N[C@H](C(=O)N[C@@H](CCCNC(=N)N)C(=O)N1CCC[C@H]1C(=O)N[C@@H](CCCNC(=N)N)C(=O)N[C@@H](Cc1ccc(O)cc1)C(N)=O)[C@@H](C)O)[C@@H](C)O [NSC_41735]
0.013	0.006	0.031	H-APLEPEYPGDNATPEQMAQYAAELRRYINMLTRPRY-NH2 [CAS_59763-91-6]
0.031	–	–	CC[C@H](C)[C@H](NC(=O)[C@H](Cc1ccc(O)cc1)NC(=O)[C@H](CCCNC(=N)N)NC(=O)[C@H](CCCNC(=N)N)NC(=O)[C@H](CC(C)C)NC(=O)[C@H](CC(=O)O)NC(=O)[C@H](C)NC(=O)[C@H](C)NC(=O)[C@H](Cc1ccc(O)cc1)NC(=O)[C@H](CCC(N)=O)NC(=O)[C@H](C)NC(=O)[C@H](CCSC)NC(=O)[C@H](CCC(N)=O)NC(=O)[C@H](CCC(=O)O)NC(=O)[C@@H]1CCCN1C(=O)[C@@H](NC(=O)[C@H](C)NC(=O)[C@H](CC(N)=O)NC(=O)[C@H](CC(=O)O)NC(=O)CNC(=O)[C@@H]1CCCN1C(=O)[C@H](Cc1ccc(O)cc1)NC(=O)[C@@H](NC(=O)[C@@H]1CCCN1C(=O)[C@H](CCC(=O)O)NC(=O)[C@H](CC(C)C)NC(=O)[C@@H]1CCCN1C(=O)[C@H](C)N)C(C)C)[C@@H](C)O)C(=O)N[C@@H](CC(N)=O)C(=O)N[C@@H](CCSC)C(=O)N[C@@H](CC(C)C)C(=O)N[C@H](C(=O)N[C@@H](CCCNC(=N)N)C(=O)N1CCC[C@H]1C(=O)N[C@@H](CCCNC(=N)N)C(=O)N[C@@H](Cc1ccc(O)cc1)C(N)=O)[C@@H](C)O [CAS_59763-91-6]
